From PubChem BioAssay AID549 (SRMLSC, 2006) come the findings set out here.

Calls of active or inactive are those of the source.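 How the source made its calls: active means clearly stronger inhibition of phosphomevalonate kinase than of the coupling enzymes alone in a parallel counterscreen; inactive means the rest.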

The target of the test is phosphomevalonate kinase (Streptococcus pneumoniae D39). The test can be described thus: S. pneumoniae PMK inhibitor potency, dose response, biochemical, mevalonate pathway, coupling enzyme counter-screen (AID 549). Conditions: PK/LDH coupled NADH absorbance 340 nm. Background: A counterscreen serves to expose hits that act by an unwanted route or on another target.
Regarding `Cc1n[nH]c(=S)n(/N=C/c2ccccn2)c1=O`, the outcome was inactive.

Consider `CCOC(=O)c1cnc(SCC(=O)N2CCN(C(=O)c3ccco3)CC2)nc1N`, for which the result was inactive.

For the molecule `COc1ccccc1C(c1nnnn1C(C)(C)C)N1CCN(Cc2ccncc2)CC1` (stereo not given), the outcome was inactive.

With `CN(C(=O)C1CCOC1)c1nnc(C2CCOC2)s1` (stereo not given), the result was inactive.

Consider `N#Cc1cc2ccccc2nc1SCc1cccnc1`, for which the outcome was inactive.

Regarding `O=c1oc2ccccc2n1CCn1c2ccccc2c2nc3ccccc3nc21`, the outcome was inactive.

Take `O=C(NCCCN1CCN(Cc2ccccc2)CC1)C1CCN(S(=O)(=O)N2CCCC2)CC1`: the outcome was inactive.

On to `CCOC(=O)CCn1c2nc(C)cc(C)c2c(=O)n1-c1ccccc1`, for which the outcome was inactive.

With `C=CCSc1nnc(Cn2c(=O)sc3ccccc32)n1C`, the outcome was inactive.

With `Cc1ccc(S(=O)(=O)N2CCN(c3nc(C(C)C)c4c(c3C#N)CC(C)(C)OC4)CC2)cc1`, the outcome was inactive.

Consider `CCn1c(SC(=O)NC2CCCCC2)nnc1-c1cccs1`, for which the outcome was inactive.

Take `CC(C)OC(=O)CN1C(=O)c2ccccc2C1=O`: the result was inactive.

As for `CCOC(=O)c1ccccc1NCN1C(=O)CSC1=O`, the result was inactive.

For the molecule `COCCCNC(=O)c1ccc(N2CCCC2)c(NS(=O)(=O)c2ccc(C)cc2)c1`, the outcome was inactive.

Consider `COC(=O)c1nonc1NCn1nnc2ccccc21`, for which the result was inactive.

On to `CCOc1ncccc1C(=O)OCc1cc(=O)n2c(n1)sc1ccccc12`, for which the outcome was inactive.

Turning to `Cc1n[nH]c(C)c1N1C(=O)c2cccc3c(N4CCCCCC4)ccc(c23)C1=O`, the outcome was inactive.

On to `O=C(Cn1cc(C(F)(F)F)ccc1=O)N1CCN(S(=O)(=O)c2ccccc2)CC1`, for which the result was inactive.

Consider `Cc1noc(C)c1CSc1nnc(-c2ccncc2)n1-c1cccc(Cl)c1C`, for which the result was inactive.

With `c1cncc(C(c2nnnn2C2CCCC2)N2CCCC2)c1` (stereo not given), the result was inactive.

For the molecule `O=C(Nc1c(-c2ccccc2)nc2sccn12)c1ccccc1`, the outcome was inactive.

In the case of `CCOC(=O)C1CCN(C(=O)C2CCN(S(=O)(=O)N3CCCC3)CC2)CC1`, the result was inactive.

`CCOc1ccccc1C(=O)NCC(=O)OCC(=O)c1ccc2c(c1)OCCO2`: the result was inactive.

On to `COCCn1c(C)cc2c(c1=O)C(c1ccccc1F)C(C#N)=C(N)O2` (stereo not given), for which the outcome was inactive.

Turning to `Cc1cccc(OCCCc2c(C)n[nH]c2C)c1`, the result was inactive.

`COc1ccc(-n2c(SCc3nnc(-c4ccccc4)o3)nnc2-c2ccccc2)cc1`: the outcome was inactive.

Regarding `COC(=O)C(NC(=O)c1ccccc1)=C1C=C(C)OC(C)=C1`, the outcome was inactive.

As to `CC(C)(C)NC(=O)CSc1ncnc2c1nnn2Cc1ccccc1Cl`, the result was inactive.

In the case of `OC1CCCN(Cc2ccc3c(c2)Cc2ccccc2-3)C1` (stereo not given), the outcome was inactive.

`CCOc1ccc2[nH]c(=O)c(C(c3nnnn3CC3CCCO3)N3CCc4ccccc4C3)cc2c1` (stereo not given): the result was inactive.

As for `CN(C)c1ccc(CNCCC2(O)CCOC(C)(C)C2)cc1` (stereo not given), the outcome was inactive.

For `CCOC(=O)C1=C(C)Nc2ccccc2N=C1NC(=O)CCCN1C(=O)c2ccccc2C1=O`, the result was inactive.

As for `COc1cc2cc(CN(CCCO)S(=O)(=O)c3ccccc3Cl)c(=O)[nH]c2cc1OC`, the result was inactive.

Turning to `CC(C)COC(=O)NCC12C=CC(O1)C1C(=O)N(c3ccc(Cl)cc3)C(=O)C12` (stereo not given), the result was inactive.

Consider `CCn1c2ccccc2c2cc(CN3CCN(C(=O)c4ccco4)CC3)ccc21`, for which the result was inactive.

Consider `COc1ccc(Cn2nnnc2C(c2ccccn2)N2CCN(c3cc(Cl)ccc3C)CC2)cc1` (stereo not given), for which the outcome was inactive.

`O=C(CNC(=O)c1cccs1)NCCN1CCN(c2ccccc2F)CC1`: the result was inactive.

Take `CC(C)OC(=O)c1cccnc1SCc1cc(=O)n2ccccc2n1`: the result was inactive.

Regarding `Cc1cc(=O)n2[nH]c(-c3ccccc3Cl)cc2n1`, the outcome was inactive.

With `Cc1cc(C)n2nc(SCC(=O)NCc3ccco3)nc2n1`, the outcome was inactive.

Turning to `Cc1c2c(nc3c(C(=O)NC4CCCCC4C)cnn13)CCCC2` (stereo not given), the outcome was inactive.

Consider `CC(=O)N1CCN(c2nc3cc4c(cc3nc2NS(=O)(=O)c2ccccc2)OCCO4)CC1`, for which the outcome was inactive.

For `CCCOc1ccc(C2C(=O)N(C3CCCCC3)CC(=O)N2CCCOCC)cc1OC` (stereo not given), the result was inactive.

As for `CC(=O)N1CCC(N2CCN(c3ccccc3F)CC2)CC1`, the outcome was inactive.

On to `CC(CC(=O)O)NCC1COc2ccccc2O1` (stereo not given), for which the outcome was inactive.

Take `COc1ccccc1-n1c(SCC(=O)N2CCCCC2)nnc1-c1ccccc1O`: the result was inactive.

Consider `CC1(C(=O)NC2CCCCCCC2)CCC(=O)N1Cc1ccco1` (stereo not given), for which the result was inactive.

Consider `CCOc1ccc2[nH]c(=O)c(CN(CCO)C(=O)c3ccc(Br)cc3)cc2c1`, for which the outcome was inactive.

Turning to `O=C(Nc1cccc2ccccc12)c1cnccn1`, the result was inactive.

Regarding `Cc1cc(C)n2nc(SCc3cc(=O)n4c(C)cccc4n3)nc2n1`, the result was inactive.

As to `O=C(C1CCN(Cc2ccc(OCc3ccccc3)cc2)CC1)N1CCCC1`, the outcome was inactive.

Turning to `CC(C)(C)NC(=O)CSc1nnc(-c2ccccn2)n1-c1ccccc1`, the outcome was inactive.

For the molecule `O=C(NC1CC1)c1ccc2c(c1)ncn2C1CCCC1`, the result was inactive.

`CC(Sc1ncc(C#N)c(N)n1)C(=O)Nc1ccccc1` (stereo not given): the outcome was inactive.

For the molecule `COc1ccc(S(=O)(=O)Nc2nnc(C)s2)cc1`, the outcome was inactive.

Take `COc1cccc(OC)c1OCC(O)CN1CCN(c2ccccc2)CC1` (stereo not given): the result was inactive.

For the molecule `CCOc1ccc(S(=O)(=O)NCCCN2CCOCC2)c2ccccc12`, the outcome was inactive.

As to `O=C(NCCCNC(=O)c1ccccn1)c1ccccn1`, the result was inactive.

Consider `O=C(Cc1coc(-c2ccc(F)cc2)n1)N1CCOCC1`, for which the outcome was inactive.

As to `Cc1onc(-c2c(Cl)cccc2Cl)c1C(=O)Nc1ccc2c(c1)OCO2`, the outcome was inactive.

Consider `COC(=O)C1=C(C)OC(N)=C(C#N)C1c1cc(OC)c(OCC(N)=O)cc1Cl` (stereo not given), for which the outcome was inactive.

Regarding `CCC1Oc2ccc(C)cc2N(CC(=O)NCCN2CCCCCC2)C1=O` (stereo not given), the result was inactive.

Turning to `Cc1nonc1NC(=O)CSc1ccc(-c2ccccc2)nn1`, the outcome was inactive.

`Cc1nnc(SCC(=O)Nc2nsc(-c3ccccc3)n2)s1`: the result was inactive.

As to `O=C1CC(c2ccccc2)CC(O)=C1C=NCC1CCCO1` (stereo not given), the result was inactive.

With `COc1ccc(C(=O)Nc2cccc3c2C(=O)NC3=O)cc1S(=O)(=O)N1CCOCC1`, the result was inactive.

In the case of `COC(=O)c1cc(=O)nc2sccn12`, the result was inactive.

As for `O=C(Nc1ccc(-c2noc(COc3ccccc3Cl)n2)cc1)c1ccco1`, the result was inactive.

For `Cc1ccc(CN2CCN(C(=O)C3CCC3)CC2)cc1`, the result was inactive.

For the molecule `CCOC(=O)c1c(NC(=O)c2cc(C3CC3)on2)sc2c1CCCC2`, the outcome was inactive.

In the case of `COc1ccc(C2C3=C(OC(C)=O)c4ccccc4C3=Nc3c2c(=O)n(C)c(=O)n3C)cc1` (stereo not given), the outcome was inactive.

As for `O=C(COC(=O)c1ccco1)NC1CCCCC1`, the outcome was inactive.

As for `O=C(CSCc1cccc(F)c1)N1CCN(c2ccccc2)CC1`, the outcome was inactive.

For the molecule `COc1ccccc1CN(Cc1cc2cc(C)cc(C)c2[nH]c1=O)Cc1nnnn1CC1CCCO1` (stereo not given), the outcome was inactive.

Turning to `Cc1ccc(C)c(N(CC(=O)NC2CCCC2)C(=O)CCCC(=O)Nc2ccccn2)c1`, the result was inactive.

Consider `O=C(CSc1cc(Cl)ccc1Cl)NCC1CCCO1` (stereo not given), for which the result was inactive.

Regarding `Cc1oc2c(O)c(O)ccc2c(=O)c1-c1ccccc1`, the result was inactive.

In the case of `Cc1cc(C)cc(CC2CC(=O)N(c3nc(C)cc(C)n3)C2=O)c1` (stereo not given), the outcome was inactive.

On to `O=c1cc(O)c2c(=O)[nH]c(=O)n(-c3ccccc3)c2[nH]1`, for which the result was inactive.

Turning to `Cn1nnnc1Sc1ncnc2scc(-c3ccc(F)cc3)c12`, the result was inactive.

As to `CN1CCN(S(=O)(=O)c2cccc(S(=O)(=O)c3ccc(Cl)c(Cl)c3)c2)CC1`, the result was inactive.

Consider `O=C(NC1CCCCC1)C1CC(=O)N(c2ccc(Cl)cc2)C1` (stereo not given), for which the result was inactive.

Consider `Cc1nc2ccccc2n2c(O)c(CC(=O)O)cc12`, for which the result was inactive.

As to `CC(C)n1nnnc1SCC(=O)Nc1ccccc1N1CCOCC1`, the result was inactive.

Regarding `COc1ccc2c(c1)OC1(C)CC2C(C(=O)c2ccccc2OC)C(=O)N1` (stereo not given), the result was inactive.

With `O=C(CSc1nc(-c2ccccc2)cs1)N1CCN(C(=O)c2ccco2)CC1`, the outcome was inactive.

Consider `Cc1ccc(C(=O)c2cc3c(cc2N)OCCO3)cc1`, for which the outcome was inactive.

As to `COc1ccc(CNC(=O)C2CCN(S(=O)(=O)N3CCOCC3)CC2)cc1`, the outcome was inactive.

For `Cc1cc2c(C(F)(F)F)cc(=O)oc2c2c1NCCC2`, the result was inactive.

In the case of `COc1ccc(NC(=O)c2ccco2)cc1NC(=O)c1ccc(C)cc1`, the result was inactive.

Turning to `Cc1ccc(-n2c(CSc3nc(C)cc(C)n3)nnc2SCC(=O)NCc2ccco2)cc1`, the result was inactive.

In the case of `COCCCNC(=O)CN(C1CCCCC1)S(=O)(=O)c1ccc(C)cc1`, the outcome was inactive.

For the molecule `Cc1occc1-c1nnc(SCC(=O)N2CCOCC2)n1Cc1ccco1`, the result was inactive.

Turning to `COc1ccc(C2C(=O)N(C3CCCCC3)CC(=O)N2CCc2ccccc2)cc1OC` (stereo not given), the result was inactive.

With `Cc1cc(C)n2c(SCC(=O)N(C)C3CCS(=O)(=O)C3)nnc2n1` (stereo not given), the result was inactive.
